# Test system: MV-4-11 cells
# Assay: Gene expression microarray analysis (Affymetrix PrimeView) and GSEA
# Format: cell-based, human
# Design: RFU PODN (11730768_x_at) / Fold change /veh PODN (11730768_x_at) / RFU LINC00158 (11744669_a_at) / Fold change /veh LINC00158 (11744669_a_at) / RFU DUSP10 (11751237_a_at) / Fold change /veh DUSP10 (11751237_a_at) / RFU ID3 (11757404_x_at) / Fold change /veh ID3 (11757404_x_at) / RFU PLEKHG5 (11737974_s_at) / Fold change /veh PLEKHG5 (11737974_s_at) / RFU LRRC4B (11730491_at) / Fold change /veh LRRC4B (11730491_at) / RFU GIMAP4 (11747438_a_at) / Fold change /veh GIMAP4 (11747438_a_at) / RFU KRT8 (11758183_x_at) / Fold change /veh KRT8 (11758183_x_at) / RFU CNN1 (11734310_a_at) / Fold change /veh CNN1 (11734310_a_at) / RFU VPS37D (11726825_at) / Fold change /veh VPS37D (11726825_at) / RFU C10orf10 (11716522_x_at) / Fold change /veh C10orf10 (11716522_x_at) / RFU KIR2DL2 /// KIR2DL4 /// KIR2DL5A /// KIR2DL5B /// KIR2DS1 /// KIR2DS2 /// KIR2DS3 /// KIR2DS4 /// KIR3DL3 /// KIR3DL3 /// KIR3DS1 (11738374_at) / Fold change /veh KIR2DL2 /// KIR2DL4 /// KIR2DL5A /// KIR2DL5B /// KIR2DS1 /// KIR2DS2 /// KIR2DS3 /// KIR2DS4 /// KIR3DL3 /// KIR3DL3 /// KIR3DS1 (11738374_at) / RFU C1QL1 (11718748_at) / Fold change /veh C1QL1 (11718748_at) / RFU TMPRSS4 (11747572_a_at) / Fold change /veh TMPRSS4 (11747572_a_at) / RFU HAMP (11756126_x_at) / Fold change /veh HAMP (11756126_x_at) / RFU RNFT2 (11725882_a_at) / Fold change /veh RNFT2 (11725882_a_at) / RFU NR4A2 (11747474_a_at) / Fold change /veh NR4A2 (11747474_a_at) / RFU ABCC12 (11746883_a_at) / Fold change /veh ABCC12 (11746883_a_at) / RFU TMEM136 (11760407_x_at) / Fold change /veh TMEM136 (11760407_x_at) / RFU CLDN22 /// WWC2 (11732394_at) / Fold change /veh CLDN22 /// WWC2 (11732394_at) / RFU HLA-DPB1 (11760878_x_at) / Fold change /veh HLA-DPB1 (11760878_x_at) / RFU SPINT1 (11716480_a_at) / Fold change /veh SPINT1 (11716480_a_at) / RFU GAP43 (11754022_s_at) / Fold change /veh GAP43 (11754022_s_at) / RFU A4GNT (11735810_at) / Fold change /veh A4GNT (11735810_at) / RFU PRB3 (11715151_x_at) / Fold change /veh PRB3 (11715151_x_at) / RFU TUBB4B (11761932_at) / Fold change /veh TUBB4B (11761932_at) / RFU CAPN14 (11732068_a_at) / Fold change /veh CAPN14 (11732068_a_at) / RFU TMCC2 (11721928_a_at) / Fold change /veh TMCC2 (11721928_a_at) / RFU IRGQ (11745062_a_at) / Fold change /veh IRGQ (11745062_a_at) / RFU FAM174B (11720279_a_at) / Fold change /veh FAM174B (11720279_a_at) / RFU TMPRSS4 (11748680_a_at) / Fold change /veh TMPRSS4 (11748680_a_at) / RFU FAM212B (11763350_a_at) / Fold change /veh FAM212B (11763350_a_at) / RFU PLEKHG5 (11743358_a_at) / Fold change /veh PLEKHG5 (11743358_a_at) / RFU ZSCAN30 (11745921_a_at) / Fold change /veh ZSCAN30 (11745921_a_at) / RFU CMKLR1 (11741424_a_at) / Fold change /veh CMKLR1 (11741424_a_at) / RFU LOC101060620 /// MAPK8IP1 (11723275_at) / Fold change /veh LOC101060620 /// MAPK8IP1 (11723275_at) / RFU SPTSSB (11747773_x_at) / Fold change /veh SPTSSB (11747773_x_at) / RFU PRSS12 (11739890_at) / Fold change /veh PRSS12 (11739890_at) / RFU BIN1 (11741810_x_at) / Fold change /veh BIN1 (11741810_x_at) / RFU WNT11 (11732464_a_at) / Fold change /veh WNT11 (11732464_a_at) / RFU C10orf10 (11716521_a_at) / Fold change /veh C10orf10 (11716521_a_at) / RFU C5orf56 (11738089_at) / Fold change /veh C5orf56 (11738089_at) / RFU CYB561 (11721691_x_at) / Fold change /veh CYB561 (11721691_x_at) / RFU ANKRD19P (11752326_a_at) / Fold change /veh ANKRD19P (11752326_a_at) / RFU OR2T12 /// OR2T33 /// OR2T8 (11738714_s_at) / Fold change /veh OR2T12 /// OR2T33 /// OR2T8 (11738714_s_at) / RFU VCAN (11748164_a_at) / Fold change /veh VCAN (11748164_a_at) / RFU JSRP1 (11732532_at) / Fold change /veh JSRP1 (11732532_at) / RFU KRTAP10-11 (11738290_x_at) / Fold change /veh KRTAP10-11 (11738290_x_at) / RFU MYO3A (11730013_a_at) / Fold change /veh MYO3A (11730013_a_at) / RFU EBF3 (11725865_a_at) / Fold change /veh EBF3 (11725865_a_at) / RFU CAMK2N1 (11719241_x_at) / Fold change /veh CAMK2N1 (11719241_x_at) / RFU C5orf56 (11738088_a_at) / Fold change /veh C5orf56 (11738088_a_at) / RFU OLFML3 (11715873_a_at) / Fold change /veh OLFML3 (11715873_a_at) / RFU LOC100653217 /// NTM (11731650_a_at) / Fold change /veh LOC100653217 /// NTM (11731650_a_at) / RFU MAPK11 (11762145_a_at) / Fold change /veh MAPK11 (11762145_a_at) / RFU FIZ1 (11724087_x_at) / Fold change /veh FIZ1 (11724087_x_at) / RFU OASL (11726364_x_at) / Fold change /veh OASL (11726364_x_at) / RFU SOX15 (11748057_x_at) / Fold change /veh SOX15 (11748057_x_at) / RFU CD79A (11719716_a_at) / Fold change /veh CD79A (11719716_a_at) / RFU HIST1H1D (11736915_at) / Fold change /veh HIST1H1D (11736915_at) / RFU CASKIN2 (11723855_a_at) / Fold change /veh CASKIN2 (11723855_a_at) / RFU LOC730098 (11760151_x_at) / Fold change /veh LOC730098 (11760151_x_at) / RFU OR4N2 (11742367_at) / Fold change /veh OR4N2 (11742367_at) / RFU PRRT2 (11749266_a_at) / Fold change /veh PRRT2 (11749266_a_at) / RFU SNX32 (11753110_a_at) / Fold change /veh SNX32 (11753110_a_at) / RFU CDHR5 (11726645_a_at) / Fold change /veh CDHR5 (11726645_a_at) / RFU RCAN1 (11760418_a_at) / Fold change /veh RCAN1 (11760418_a_at) / RFU FAM167A (11723789_a_at) / Fold change /veh FAM167A (11723789_a_at) / RFU FAM26E (11764081_at) / Fold change /veh FAM26E (11764081_at) / RFU ISYNA1 (11749810_s_at) / Fold change /veh ISYNA1 (11749810_s_at) / RFU ACY1 (11761880_at) / Fold change /veh ACY1 (11761880_at) / RFU 11764098_at / Fold change /veh 11764098_at / RFU SAMD14 (11745864_x_at) / Fold change /veh SAMD14 (11745864_x_at) / RFU NPB (11741838_a_at) / Fold change /veh NPB (11741838_a_at) / RFU TMPRSS6 (11731388_a_at) / Fold change /veh TMPRSS6 (11731388_a_at) / RFU KRTAP10-2 (11738614_at) / Fold change /veh KRTAP10-2 (11738614_at) / RFU ARHGAP8 /// PRR5-ARHGAP8 (11727945_x_at) / Fold change /veh ARHGAP8 /// PRR5-ARHGAP8 (11727945_x_at) / RFU KRTAP5-7 /// NADSYN1 (11734609_at) / Fold change /veh KRTAP5-7 /// NADSYN1 (11734609_at) / RFU RASL12 (11751679_a_at) / Fold change /veh RASL12 (11751679_a_at) / RFU CDKN2B (11736163_a_at) / Fold change /veh CDKN2B (11736163_a_at) / RFU PRF1 (11729649_at) / Fold change /veh PRF1 (11729649_at) / RFU, ZNF638 /// ZNF638-IT1 / Fold change vs veh, ZNF638 /// ZNF638-IT1 / RFU, PANK3 / Fold change vs veh, PANK3 / RFU, SH3YL1 / Fold change vs veh, SH3YL1 / RFU, ZEB2 / Fold change vs veh, ZEB2 / RFU, NRIP1 / Fold change vs veh, NRIP1 / RFU, PTTG1IP / Fold change vs veh, PTTG1IP / RFU, CAPN2 / Fold change vs veh, CAPN2 / RFU, MED14 / Fold change vs veh, MED14 / RFU, SNORA58 / Fold change vs veh, SNORA58 / RFU, C1orf63 / Fold change vs veh, C1orf63 / RFU, LRRFIP1 / Fold change vs veh, LRRFIP1 / RFU, NDUFAF7 / Fold change vs veh, NDUFAF7 / RFU, SLC12A2 / Fold change vs veh, SLC12A2 / RFU, IBTK / Fold change vs veh, IBTK / RFU, ESF1 / Fold change vs veh, ESF1 / Fold change vs veh, TMEM50B / RFU, TAOK1 / Fold change vs veh, TAOK1 / RFU, ACBD3 / Fold change vs veh, ACBD3 / RFU, TMA16 / Fold change vs veh, TMA16 / RFU, RWDD3 / Fold change vs veh, RWDD3 / RFU, BCAT1 / Fold change vs veh, BCAT1 / RFU, EDEM3 / Fold change vs veh, EDEM3 / RFU, TMEM33 / Fold change vs veh, TMEM33 / RFU, WDR75 / Fold change vs veh, WDR75 / RFU, AHCTF1 / Fold change vs veh, AHCTF1 / RFU, TFRC / Fold change vs veh, TFRC / RFU, ZDHHC17 / Fold change vs veh, ZDHHC17 / RFU, NOM1 / Fold change vs veh, NOM1 / RFU, ARL8B / Fold change vs veh, ARL8B / RFU, ZBTB11 / Fold change vs veh, ZBTB11 / RFU, TAMM41 / Fold change vs veh, TAMM41 / RFU, KIAA1704 /// LOC100996395 / Fold change vs veh, KIAA1704 /// LOC100996395 / RFU, ING1 / Fold change vs veh, ING1 / RFU, TRMT61B / Fold change vs veh, TRMT61B / RFU, FUBP3 / Fold change vs veh, FUBP3 / RFU, TP53 / Fold change vs veh, TP53 / RFU, TNKS2 / Fold change vs veh, TNKS2 / RFU, ZFP14 / Fold change vs veh, ZFP14 / RFU, ACTR2 / Fold change vs veh, ACTR2 / RFU, PPP3R1 / Fold change vs veh, PPP3R1 / RFU, PIK3R1 / Fold change vs veh, PIK3R1 / RFU, HNRNPA1 / Fold change vs veh, HNRNPA1 / RFU, RNF170 / Fold change vs veh, RNF170 / RFU, ZNF28 / Fold change vs veh, ZNF28 / RFU, RNGTT / Fold change vs veh, RNGTT / RFU, OGT / Fold change vs veh, OGT / RFU, BRD1 / Fold change vs veh, BRD1 / RFU, MARS / Fold change vs veh, MARS / RFU, ZNF655 / Fold change vs veh, ZNF655 / RFU, FAHD1 / Fold change vs veh, FAHD1 / RFU, BDP1 / Fold change vs veh, BDP1 / RFU, LRRCC1 / Fold change vs veh, LRRCC1 / RFU, ARID1A / Fold change vs veh, ARID1A / RFU, ZNF146 / Fold change vs veh, ZNF146 / RFU, ZNF330 / Fold change vs veh, ZNF330 / RFU, GPN3 / Fold change vs veh, GPN3 / RFU, C9orf123 / Fold change vs veh, C9orf123 / RFU, N4BP2L2 / Fold change vs veh, N4BP2L2 / RFU, ARFIP1 / Fold change vs veh, ARFIP1 / RFU, FAM179B / Fold change vs veh, FAM179B / RFU, BCL10 / Fold change vs veh, BCL10 / RFU, UHRF1BP1L / Fold change vs veh, UHRF1BP1L / RFU, BET1 / Fold change vs veh, BET1 / RFU, CNOT2 / Fold change vs veh, CNOT2 / RFU, ZNF268 / Fold change vs veh, ZNF268 / Fold change vs veh, ZNF507 / RFU, DGCR2 / Fold change vs veh, DGCR2 / RFU, WDSUB1 / Fold change vs veh, WDSUB1 / Fold change vs veh, HSP90B1 /// MIR3652 / RFU, ADSS / Fold change vs veh, ADSS / RFU, GK / Fold change vs veh, GK / RFU, ZNF148 / Fold change vs veh, ZNF148 / RFU, TAF9 / Fold change vs veh, TAF9 / RFU, SLC1A5 / Fold change vs veh, SLC1A5 / RFU, SLMO2 / Fold change vs veh, SLMO2 / RFU, ABCC4 / Fold change vs veh, ABCC4 / RFU, LOC101060439 /// RAP1B / Fold change vs veh, LOC101060439 /// RAP1B / RFU, RFX7 / Fold change vs veh, RFX7 / RFU, GTPBP10 / Fold change vs veh, GTPBP10 / RFU, CNEP1R1 / Fold change vs veh, CNEP1R1 / RFU, BIVM-ERCC5 /// ERCC5 / Fold change vs veh, BIVM-ERCC5 /// ERCC5 / RFU, ILF3 / Fold change vs veh, ILF3 / RFU 11762660_at / Fold change /veh 11762660_at / RFU VCAN (11757783_s_at) / Fold change /veh VCAN (11757783_s_at) / RFU DDX43 (11728927_at) / Fold change /veh DDX43 (11728927_at) / RFU KRT8 (11758188_x_at) / Fold change /veh KRT8 (11758188_x_at) / RFU NKD1 (11759106_at) / Fold change /veh NKD1 (11759106_at) / RFU SRD5A1 (11742802_a_at) / Fold change /veh SRD5A1 (11742802_a_at) / RFU TPSAB1 /// TPSB2 (11721975_s_at) / Fold change /veh TPSAB1 /// TPSB2 (11721975_s_at) / RFU GSTM3 (11746129_a_at) / Fold change /veh GSTM3 (11746129_a_at) / RFU IL23R (11737362_x_at) / Fold change /veh IL23R (11737362_x_at) / RFU TMEM51 (11727254_a_at) / Fold change /veh TMEM51 (11727254_a_at) / RFU PIWIL2 (11732686_x_at) / Fold change /veh PIWIL2 (11732686_x_at) / RFU ORM1 (11744905_x_at) / Fold change /veh ORM1 (11744905_x_at) / RFU CCDC152 (11743942_at) / Fold change /veh CCDC152 (11743942_at) / RFU ECM1 (11717891_a_at) / Fold change /veh ECM1 (11717891_a_at) / RFU IL23R (11748794_a_at) / Fold change /veh IL23R (11748794_a_at) / RFU TNFAIP8L3 (11732012_x_at) / Fold change /veh TNFAIP8L3 (11732012_x_at) / RFU MBOAT4 (11741988_at) / Fold change /veh MBOAT4 (11741988_at) / RFU 11764193_at / Fold change /veh 11764193_at / RFU TMEM53 (11763286_at) / Fold change /veh TMEM53 (11763286_at) / RFU MAGEB2 (11727129_at) / Fold change /veh MAGEB2 (11727129_at) / RFU TMEM200A (11744735_a_at) / Fold change /veh TMEM200A (11744735_a_at) / RFU CCDC152 (11751479_a_at) / Fold change /veh CCDC152 (11751479_a_at) / RFU FAM211A (11726209_a_at) / Fold change /veh FAM211A (11726209_a_at) / RFU RGS16 (11746705_a_at) / Fold change /veh RGS16 (11746705_a_at) / RFU VCAN (11755009_s_at) / Fold change /veh VCAN (11755009_s_at) / RFU RHOB (11743442_s_at) / Fold change /veh RHOB (11743442_s_at) / RFU RGS16 (11720943_a_at) / Fold change /veh RGS16 (11720943_a_at) / RFU RGS16 (11720944_at) / Fold change /veh RGS16 (11720944_at) / RFU, VPS4B / Fold change vs veh, VPS4B / RFU, CREB1 / Fold change vs veh, CREB1 / RFU, DNAJC13 / Fold change vs veh, DNAJC13 / RFU, GNAQ / Fold change vs veh, GNAQ / RFU, CDK5R1 / Fold change vs veh, CDK5R1 / RFU, ZRANB3 / Fold change vs veh, ZRANB3 / RFU, CUL4A / Fold change vs veh, CUL4A / RFU, CCNY / Fold change vs veh, CCNY / RFU, UFL1 / Fold change vs veh, UFL1 / RFU, COG3 / Fold change vs veh, COG3 / RFU, DIAPH2 / Fold change vs veh, DIAPH2 / RFU, SKA2 / Fold change vs veh, SKA2 / RFU, AFF3 / Fold change vs veh, AFF3 / RFU, LMF1 / Fold change vs veh, LMF1 / RFU, IPO11 / Fold change vs veh, IPO11 / RFU, DFFB / Fold change vs veh, DFFB / RFU, FOXP1 / Fold change vs veh, FOXP1 / RFU, CARD8 / Fold change vs veh, CARD8 / RFU, STRN3 / Fold change vs veh, STRN3 / RFU, ADK / Fold change vs veh, ADK / RFU, RASSF2 / Fold change vs veh, RASSF2 / RFU, WIPF1 / Fold change vs veh, WIPF1 / RFU, LARP1B / Fold change vs veh, LARP1B / RFU, RASA1 / Fold change vs veh, RASA1 / RFU, RB1 / Fold change vs veh, RB1 / RFU, PPFIA1 / Fold change vs veh, PPFIA1 / RFU, MAT2A / Fold change vs veh, MAT2A / RFU, CCT5 / Fold change vs veh, CCT5 / RFU, WDR92 / Fold change vs veh, WDR92 / RFU, CUX1 / Fold change vs veh, CUX1 / RFU, TTC7A / Fold change vs veh, TTC7A / RFU, TMEM135 / Fold change vs veh, TMEM135 / RFU, DEPTOR / Fold change vs veh, DEPTOR / RFU, CPM / Fold change vs veh, CPM / RFU, DNAJB6 / Fold change vs veh, DNAJB6 / RFU, CACNA2D3 / Fold change vs veh, CACNA2D3 / RFU, DTX4 / Fold change vs veh, DTX4 / RFU, TFCP2 / Fold change vs veh, TFCP2 / RFU, GMCL1 /// GMCL1P1 / Fold change vs veh, GMCL1 /// GMCL1P1 / RFU, AEBP2 / Fold change vs veh, AEBP2 / RFU, SNHG1 /// SNORD22 /// SNORD25 /// SNORD26 /// SNORD27 /// SNORD28 /// SNORD29 /// SNORD31 / Fold change vs veh, SNHG1 /// SNORD22 /// SNORD25 /// SNORD26 /// SNORD27 /// SNORD28 /// SNORD29 /// SNORD31 / Fold change (Aza/veh), C12orf56 (ProbeSet 11735607_a_at) / Fold change (ACY-1035/veh), C12orf56 (ProbeSet 11735607_a_at) / Fold change (Aza/veh), FGFR1OP (ProbeSet 11751329_s_at) / Fold change (ACY-1035/veh), FGFR1OP (ProbeSet 11751329_s_at) / Fold change (Aza/veh), VPS36 (ProbeSet 11739960_a_at) / Fold change (ACY-1035/veh), VPS36 (ProbeSet 11739960_a_at) / RFU SYPL1 (11715823_x_at) / Fold change /veh SYPL1 (11715823_x_at) / RFU IGFBP7 (11715501_s_at) / Fold change /veh IGFBP7 (11715501_s_at) / RFU REEP3 (11722064_at) / Fold change /veh REEP3 (11722064_at) / RFU IGLL1 (11728026_x_at) / Fold change /veh IGLL1 (11728026_x_at): dose or concentration left out as unconfirmed
# Settings: MV-4-11 cells, 48 hours
compound,measurement,value
Nc1ncn([C@@H]2O[C@H](CO)[C@@H](O)[C@H]2O)c(=O)n1 [azacitidine],Fold change /veh 11764098_at,1.18
